In US20220274979A1 (Bayer Pharma Aktiengesellschaft, priority 2018, published 2022):
pIC50: −log10 of the molar value.

Experiments:
[1] = molecular target: T1, hK-RasG12C - hSOS1 interaction (Homo sapiens, UniProt Q07889); assay: Biochemical Assay 1: hK-RasG12C interaction assay with hSOS1 (HTRF); format: binding; conditions: for pIC50: values expressed as IC50; for inhibition at 20 µM: read-out: Assay 1 (hKRAS, hSOS Interaction) activity (expressed as IC50, or as % inhibition at 20 μM)
T1 construct: hSOS1 (amino acid 564-1049); made in house; host or cells: E. coli BL21 (DE3)
T1 sequence (Q07889 with tags, fused parts or gaps): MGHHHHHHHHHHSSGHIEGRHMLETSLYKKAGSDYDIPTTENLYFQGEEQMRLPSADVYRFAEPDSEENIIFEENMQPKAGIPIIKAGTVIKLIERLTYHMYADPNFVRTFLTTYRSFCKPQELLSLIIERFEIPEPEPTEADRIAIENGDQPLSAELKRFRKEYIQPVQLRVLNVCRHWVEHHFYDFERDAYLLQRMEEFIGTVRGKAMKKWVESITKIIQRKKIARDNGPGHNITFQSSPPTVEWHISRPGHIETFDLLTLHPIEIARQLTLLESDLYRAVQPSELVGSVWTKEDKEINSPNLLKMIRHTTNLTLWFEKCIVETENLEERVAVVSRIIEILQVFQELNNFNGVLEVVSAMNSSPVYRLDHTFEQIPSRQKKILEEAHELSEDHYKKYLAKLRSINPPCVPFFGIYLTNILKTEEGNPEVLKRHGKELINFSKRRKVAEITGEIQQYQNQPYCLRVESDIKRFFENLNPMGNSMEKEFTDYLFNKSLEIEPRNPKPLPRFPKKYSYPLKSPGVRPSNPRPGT
Protocol: Biochemical Assay 1: hK-RasG12C Interaction Assay with hSOS1
This assay quantifies the equilibrium interaction of human SOS1 (hSOS1) with human K-Ras^G12C (hK-RasG12C). Detection of the interaction is achieved by measuring homogenous time-resolved fluorescence resonance energy transfer (HTRF) from antiGST-Europium (FRET donor) bound to GST-K-RasG12C to anti-6His-XL665 bound to His-tagged hSOS1 (FRET-acceptor).
The assay buffer contained 5 mM HEPES pH 7.4 (Applichem), 150 mM NaCl (Sigma), 10 mM EDTA (Promega), 1 mM DTT (Thermofisher), 0.05% BSA Fraction V, pH 7.0, (ICN Biomedicals), 0.0025% (v/v) Igepal (Sigma) and 100 mM KF (FLUKA).
Concentrations of protein batches used were optimized to be within the linear range of the HTRF signal. A Ras working solution was prepared in assay buffer containing typically 10 nM GST-hK-RasG12C and 2 nM antiGST-Eu(K) (Cisbio, France). A SOS1 working solution was prepared in assay buffer containing typically 20 nM His-hSOS1 and 10 nM anti-6His-XL665 (Cisbio, France). An inhibitor control solution was prepared in assay buffer containing 10 nM anti-6His-XL665 without hSOS1.
(§1) Fifty nl of a 100-fold concentrated solution of the test compound in DMSO were transferred into a black microtiter test plate (384 or 1536, Greiner Bio-One, Germany) For this, either a Hummingbird liquid handler (Digilab, Mass., USA) or an Echo acoustic system (Labcyte, Calif., USA) was used.
(§2) All steps of the assay were performed at 20° C. A volume of 2.5 μl of the Ras working solution was added to all wells of the test plate using a Multidrop dispenser (Thermo Labsystems). After 2 mM preincubation, 2.5 μl of the SOS1 working solution were added to all wells except for those wells at the side of the test plate that were subsequently filled with 2.5 μl of the inhibitor control solution. After 60 mM incubation the fluorescence was measured with a Pherastar (BMG, Germany) using the HTRF module (excitation 337 nm, emission 1:620 nm, emission 2:665 nm).
(§3) IC50 values were calculated by 4-Parameter fitting using a commercial software package (Genedata Screener, Switzerland).

[2] = molecular target: T2, hSOS1 (hSOS1-mediated nucleotide exchange of hK-RasG12C) (Homo sapiens, UniProt Q07889); assay: Biochemical Assay 2: hK-RasG12C activation assay by hSOS1 at high GTP concentration (HTRF nucleotide exchange); conditions: high GTP (50 μM GTP)
T2 construct: hSOS1 (amino acid 564-1049); made in house; host or cells: E. coli BL21 (DE3)
T2 sequence (Q07889 with tags, fused parts or gaps): T1 sequence (Q07889 with tags, fused parts or gaps)
Source text: Biochemical Assay 2: hK-RasG12C Activation Assay by hSOS1 at High GTP Concentration
This assay quantifies human SOS1-mediated nucleotide exchange of human K-Ras^G12C (hK-RasG12C) preloaded with a fluorescent […] and in presence of an excess of free GTP. Loaded hK-RasG12C generates a high HTRF-signal by energy transfer from antiGST-Terbium (FRET donor) bound to hK-Ras to the loaded fluorescent GDP analog (FRET-acceptor). hSOS1 activity exchanges the fluorescent GDP for non-fluorescent GTP and therefore leads to a reduction of the HTRF signal.
The fluorescent GDP-analog EDA-GDP-Dy647P1 (2′/3′-O-(2-Aminoethyl-carbamoyl)-guanosine-5′-diphosphate labelled with Dy647P1 (Dyomics GmbH, Germany)) was synthesized by Jena Biosciences GmbH (Germany) and supplied as a 1 mM aqueous solution.
Concentrations of protein batches used were optimized to be within the linear range of the HTRF signal.
Addition of 20 μl 1 M MgCl2 (Sigma) to final 40 mM and store on ice. Purification into buffer (10 mM HEPES pH 7.4 (Applichem), 150 mM NaCl (Sigma), 5 mM MgCl2 (Sigma)) by use of a PD-Minitrap desalting column (GE Healthcare). Concentration of 1 ml purified hK-Ras-GDP-Dy647 is approx. 4-5 μM.
The assay buffer contained 10 mM HEPES pH 7.4 (Applichem), 150 mM NaCl (Sigma), 5 mM MgCl2 (Sigma), 1 mM DTT (Thermofisher), 0.05% BSA Fraction V, pH 7.0, (ICN Biomedicals), 0.0025% (v/v) Igepal (Sigma).
A Ras working solution was prepared in assay buffer containing typically 80 nM loaded GST-hK-RasG12C-EDA-GDP-Dy647P1 and 2 nM antiGST-Tb (Cisbio, France).
Alternatively, the inhibitor control solution was prepared by supplementing the hSOS1 working solution with 20 μM of 6,7-dimethoxy-N-[(1R)-1-(1-naphthyl)ethyl]quinazolin-4-amine which was used to calibrate the assay.
as §1
as §2, with “min.” for “mM”, “hSOS1” for “SOS1”, “20 min.” for “60 mM”
as §3

| Structure (SMILES) | pIC50 [1] | pIC50 [2] | inhibition at 20 µM [1] [%] |
| --- | --- | --- | --- |
| CCOc1cc2c(NC(C)c3cccc4sccc34)nc(C)nc2cn1 (stereo not drawn) [Example 3, N-[1-(1-benzothiophen-4-yl)ethyl]-6-ethoxy-2-methylpyrido[3,4-d]pyrimidin-4-amine] | 6.67 | 6.58 |  |
| Cc1nc(N[C@H](C)c2ccc(F)cc2)c2cc(F)ncc2n1 [Example 9] |  | 4.75 | 54 |
| COCCOc1ncc2nc(C)nc(N[C@H](C)c3cccc(Br)c3)c2n1 [Example 26, N-[(1R)-1-(3-bromophenyl)ethyl]-6-(2-methoxyethoxy)-2-methylpyrimido[5,4-d]pyrimidin-4-amine] | 5.56 | 5.52 |  |
| Cc1nc(NC(C)c2ccc(-c3ccccc3CN(C)C)s2)c2cc(OC3CCS(=O)(=O)CC3)ncc2n1 (stereo not drawn) [Example 67, N-[1-(5-{2-[(dimethylamino)methyl]phenyl}thiophen-2-yl)ethyl]-6-[(1,1-dioxidotetrahydro-2H-thiopyran-4-yl)oxy]-2-methylpyrido[3,4-d]pyrimidin-4-amine] | 7.38 | 7.58 |  |
| Cc1nc(N[C@H](C)c2cccc(Br)c2)c2cc(Oc3cccc(C4=NCCN4C)c3)ncc2n1 [Example 41, N-[(1R)-1-(3-bromophenyl)ethyl]-2-methyl-6-[3-(1-methyl-4,5-dihydro-1H-imidazol-2-yl)phenoxy]pyrido[3,4-d]pyrimidin-4-amine] | 5.80 | 5.64 |  |
| Cc1nc(N[C@H](C)c2cccc(Br)c2)c2cc(F)ncc2n1 [Example 34, N-[(1R)-1-(3-bromophenyl)ethyl]-6-fluoro-2-methylpyrido[3,4-d]pyrimidin-4-amine] |  | < 4.70 | 36.7 |
| Cc1nc(NC(C)c2ccc(-c3ccccc3CN(C)C)s2)c2cc(Oc3cccc(O)c3)ncc2n1 (stereo not drawn) [Example 52, 3-[(4-{[1-(5-{2-[(dimethylamino)methyl]phenyl}thiophen-2-yl)ethyl]amino}-2-methylpyrido[3,4-d]pyrimidin-6-yl)oxy]phenol] | 6.69 | 6.07 |  |
| Cc1nc(NC(C)c2ccc(-c3ccccc3CN(C)C)s2)c2cc(N3CC(NC(=O)Nc4ccccc4)C3)ncc2n1 (stereo not drawn) [Example 96, 1-[1-(4-{[1-(5-{2-[(dimethylamino)methyl]phenyl}thiophen-2-yl)ethyl]amino}-2-methylpyrido[3,4-d]pyrimidin-6-yl)azetidin-3-yl]-3-phenylurea] | 7.12 | 6.65 |  |
| Cc1nc(NC(C)c2ccc(-c3ccccc3CN(C)C)s2)c2cc(N3CC(NC(=O)CCCn4c(-c5ccccn5)nc(C)c4C)C3)ncc2n1 (stereo not drawn) [Example 87, N-[1-(4-{[1-(5-{2-[(dimethylamino)methyl]phenyl}thiophen-2-yl)ethyl]amino}-2-methylpyrido[3,4-d]pyrimidin-6-yl)azetidin-3-yl]-4-[4,5-dimethyl-2-(pyridin-2-yl)-1H-imidazol-1-yl]butanamide] | 7.15 | 6.62 |  |
| CCOc1cc2c(NC(C)c3ccc(-c4ccccc4CN(C)C)s3)nc(C)nc2cn1 (stereo not drawn) [Example 63, N-[1-(5-{2-[(dimethylamino)methyl]phenyl}thiophen-2-yl)ethyl]-6-ethoxy-2-methylpyrido[3,4-d]pyrimidin-4-amine] | 7.36 | 7.55 |  |
| CC(=O)NC1CCN(c2cc3c(N[C@H](C)c4cccc(Br)c4)nc(C)nc3cn2)C1 (mixture of isomers) [Example 42, N-[1-(4-{[(1R)-1-(3-bromophenyl)ethyl]amino}-2-methylpyrido[3,4-d]pyrimidin-6-yl)pyrrolidin-3-yl]acetamide] | 6.73 | 6.67 |  |
| CNCc1ccccc1-c1ccc(C(C)Nc2nc(C)nc3cnc(Oc4ccc(N5CCCC5=O)cc4)cc23)s1 (stereo not drawn) [Example 38, 1-{4-[(2-methyl-4-{[1-(5-{2-[(methylamino)methyl]phenyl}thiophen-2-yl)ethyl]amino}pyrido[3,4-d]pyrimidin-6-yl)oxy]phenyl}pyrrolidin-2-one] | 6.66 | 6.22 |  |
| Cc1nc(N[C@H](C)c2ccc(F)cc2)c2cc(OCC3CCOCC3)ncc2n1 [Example 11, N-[1R)-1-(4-fluorophenypethyl]-2-methyl-6-(tetrahydro-2H-pyran-4-ylmethoxy)-pyrido[3,4-d]pyrimidin-4-amine] | 5.75 | 5.71 |  |
| Cc1nc(N[C@H](C)c2cccc(Br)c2)c2cc(Oc3cccc(O)c3)ncc2n1 [Example 40, 3-[(4-{[(1R)-1-(3-bromophenyl)ethyl]amino}-2-methylpyrido[3,4-d]pyrimidin-6-yl)oxy]phenol] | 4.88 | 5.06 |  |
| CCOc1cc2c(N[C@H](C)c3cccc(S(C)(=O)=O)c3)nc(C)nc2cn1 [Example 7, 6-ethoxy-2-methyl-N-{(1R)-1-[3-(methylsulfonyl)phenyl]ethyl}pyrido[3,4-d]pyrimidin-4-amine] | 6.20 | 5.89 |  |
| Cc1nc(NC(C)c2ccc(-c3ccccc3CN(C)C)s2)c2cc(NCC3CCNC(=O)C3)ncc2n1 (stereo not drawn) [Example 86, 4-{[(4-{[1-(5-{2-[(dimethylamino)methyl]phenyl}thiophen-2-yl)ethyl]amino}-2-methylpyrido[3,4-d]pyrimidin-6-yl)amino]methyl}piperidin-2-one] | 6.92 | 6.90 |  |
| Cc1nc(N[C@H](C)c2cccc(Br)c2)c2cc(N3CCN(Cc4cccnc4)CC3)ncc2n1 [Example 43, N-[(1R)-1-(3-bromophenyl)ethyl]-2-methyl-6-[4-(pyridin-3-ylmethyl)piperazin-1-yl]pyrido[3,4-d]pyrimidin-4-amine] | 6.53 | 6.42 |  |
| Cc1nc(N[C@H](C)c2cccc(Br)c2)c2nc(Oc3ccccc3)ccc2n1 [Example 32, N-[(1R)-1-(3-bromophenyl)ethyl]-2-methyl-6-phenoxypyrido[3,2-d]pyrimidin-4-amine] |  | < 4.70 | 22.4 |
